Data reported in ChEMBL document CHEMBL1154806, “Indole derivatives from a marine sponge-derived yeast as DPPH radical scavengers” (J Nat Prod, 2009).
Active and inactive are the calls of the source. The rule behind the calls is not given here.

What was measured:
Type in all cases: functional
[1] = tested on: Radical scavenging activity; assay: Antioxidant activity assessed as DPPH radical scavenging activity at 300 uM after 48 hrs by spectrophotometry
[2] = Antioxidant activity assessed as oxygen radical scavenging activity by ORAC assay
[3] = Antioxidant activity assessed as ABTS radical scavenging activity

Row | SMILES | Activity [1] | Activity [2] | Activity [3]
1 | O=C1N[C@@H](Cc2ccc(O)cc2)C(=O)N2CCC[C@@H]12 | 16% |  | 
2 | Cc1cc(C(C)(C)C)c(O)c(C(C)(C)C)c1 | 86% |  | 
3 | CC(O)C(=O)OCCc1c[nH]c2ccccc12 (stereo not drawn) | 33% |  | 
4 | OCCc1ccc(O)cc1 | 26% | Active | 
5 | OCCc1c[nH]c2ccccc12 | 52% |  | Active
6 | O=C(CCCCO)OCCc1c[nH]c2ccccc12 | 47% |  | 
